Experimental data published in patent EP2913333A1 (priority 2014, dated 2015).
Counter-ions that a name gives are not always drawn. Like-named read-outs stand apart in the source and are kept apart here.

Key:
[1] = molecular target: T1, E. feacium DltA (Enterococcus faecium, UniProt Q3XZT7); assay: in vitro DltA activity assay (luminescence, IC50 determination); format: biochemical
T1 sequence (Q3XZT7 1-504): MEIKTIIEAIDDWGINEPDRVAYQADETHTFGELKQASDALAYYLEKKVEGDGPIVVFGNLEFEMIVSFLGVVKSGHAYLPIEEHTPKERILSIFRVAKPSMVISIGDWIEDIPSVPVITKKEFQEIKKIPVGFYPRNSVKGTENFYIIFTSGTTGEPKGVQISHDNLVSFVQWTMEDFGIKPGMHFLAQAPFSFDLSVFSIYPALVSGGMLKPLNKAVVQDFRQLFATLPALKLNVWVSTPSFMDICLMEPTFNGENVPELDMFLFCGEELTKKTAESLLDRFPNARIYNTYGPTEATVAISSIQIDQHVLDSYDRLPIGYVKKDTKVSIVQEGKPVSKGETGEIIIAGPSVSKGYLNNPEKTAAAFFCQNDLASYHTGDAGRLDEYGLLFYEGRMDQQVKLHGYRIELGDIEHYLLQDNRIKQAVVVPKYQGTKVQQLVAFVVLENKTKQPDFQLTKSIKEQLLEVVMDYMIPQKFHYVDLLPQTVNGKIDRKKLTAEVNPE
Experimental: (§1) The effect of the compounds of the invention on DltA enzymes has been based on the measure of their inhibition of DltA activity in vitro. To this end, recombinant proteins DltA were expressed and purified after cloning of the genes of S. aureus, E. faecalis, E. faecium and S. agalactiae as described thereafter. The capacity of the compounds of the invention to inhibit DltA enzymatic activity was assessed using the DltA assays as described below: • The dltA gene was amplified from chromosomal DNA of S. aureus, E. faecalis, E. faecium and S. agalactiae and introduced into E. coli BL21 (Invitrogen, Carlsbad, CA) following manufacturer's instruction. Bacteria were grown at 37°C under aerobic conditions and isopropyl-beta-D-thiogalactopyranoside (IPTG) was added to 0.5-1 mM when OD600 of the bacterial culture had reached 0.5. After a further incubation for 3 hours, cells were harvested by centrifugation. Purification of the recombinant DltA protein was performed by affinity chromatography on nickel-nitrilotriacetic acid (Ni-NTA) column following manufacturer's instructions (Qiagen). Fractions containing recombinant DltA protein were adjusted to 50% glycerol and stored at -20°C until use.
(§2) The binding potency of the inhibitors against DltA enzyme was assessed by IC50 determination in an in vitro DltA activity assay. The assay buffer "AB" contained 50 mM Hepes pH8.0, 10mM MgCl2, 50mM KCI, 0.012% Triton-X100, 10mM DTT and 100nM Myelin-basic protein. The following components were added in a white polystyrene Costar plate up to a final volume of 30µL: 3µL DMSO, or inhibitor dissolved in DMSO and 27µL DltA enzyme in AB. After 30min of preincubation at room temperature, 30µL of Substrates mix in AB were added in each well to a final volume of 60µL. This reaction mixture was then composed of DltA (produced in house from S. aureus, E. faecalis, E. faecium and S. agalactiae), 0.5mM D-Alanine (Sigma), 0.5-5µM ATP (Sigma) and 0.05 u/ml inorganic pyrophosphatase (Sigma) in assay buffer. After typically 1-2hours of incubation at room temperature (conversion rate around 30%), 30µL of the revelation mix were added to a final volume of 90µL, including the following constituents at the respective final concentrations: 10000 u/ml luciferase (Sigma), 30µM D-luciferin (Sigma), 100µM N-acetylcysteamine (Aldrich). Luminescence intensity was immediately measured on a Fluostar Optima (BMG) (excitation 360nm, emission 520nm) and converted into inhibition percentages.
(§3) For compounds interfering with the luminescent signal (quenching), the same experiment without DltA enzyme was performed to allow quenching determination and correction.

[2] = molecular target: T2, S. aureus DltA (Staphylococcus aureus, UniProt Q2FZW6); assay: as above; format: biochemical
T2 construct: made in house; host or cells: E. coli BL21
T2 sequence (Q2FZW6 1-485): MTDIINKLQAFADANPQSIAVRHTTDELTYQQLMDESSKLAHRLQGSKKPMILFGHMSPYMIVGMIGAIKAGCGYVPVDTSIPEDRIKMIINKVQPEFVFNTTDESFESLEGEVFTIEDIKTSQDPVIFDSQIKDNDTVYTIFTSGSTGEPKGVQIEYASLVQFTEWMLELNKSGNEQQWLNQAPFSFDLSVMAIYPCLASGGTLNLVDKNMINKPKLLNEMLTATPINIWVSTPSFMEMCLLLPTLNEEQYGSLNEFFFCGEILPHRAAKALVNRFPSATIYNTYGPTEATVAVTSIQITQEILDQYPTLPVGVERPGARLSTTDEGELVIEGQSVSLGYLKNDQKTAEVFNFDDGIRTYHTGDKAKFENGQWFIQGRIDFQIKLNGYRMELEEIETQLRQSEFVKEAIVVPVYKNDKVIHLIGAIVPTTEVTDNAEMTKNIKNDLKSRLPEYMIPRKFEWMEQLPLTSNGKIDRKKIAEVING
Experimental: as §1, §2, §3

[3] = molecular target: T3, E. feacalis DltA (Enterococcus faecalis, UniProt Q830N0); assay: biochemical
T3 sequence (Q830N0 1-506): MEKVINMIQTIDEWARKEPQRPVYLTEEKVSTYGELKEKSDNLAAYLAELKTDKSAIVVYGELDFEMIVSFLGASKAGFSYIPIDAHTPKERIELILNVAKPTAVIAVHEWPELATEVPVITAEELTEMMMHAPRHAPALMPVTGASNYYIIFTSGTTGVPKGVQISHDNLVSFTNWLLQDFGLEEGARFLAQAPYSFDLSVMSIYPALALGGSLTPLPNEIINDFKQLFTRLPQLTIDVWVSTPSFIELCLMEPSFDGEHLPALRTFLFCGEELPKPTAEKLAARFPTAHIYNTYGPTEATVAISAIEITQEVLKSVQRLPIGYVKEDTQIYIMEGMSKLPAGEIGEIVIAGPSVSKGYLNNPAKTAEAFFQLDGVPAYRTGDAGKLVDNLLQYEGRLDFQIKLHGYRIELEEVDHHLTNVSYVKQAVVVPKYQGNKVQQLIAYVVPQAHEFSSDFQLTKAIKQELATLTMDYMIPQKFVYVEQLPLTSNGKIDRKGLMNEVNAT
Experimental: as §1, with “To” for “The effect of the compounds of the invention on DltA enzymes has been based on the measure of their inhibition of DltA activity in vitro. To”
as §2, §3

[4] = molecular target: T4, S. Agalactiae DltA (Streptococcus agalactiae serotype III, UniProt Q8VM67); assay: biochemical
T4 sequence (Q8VM67 1-511): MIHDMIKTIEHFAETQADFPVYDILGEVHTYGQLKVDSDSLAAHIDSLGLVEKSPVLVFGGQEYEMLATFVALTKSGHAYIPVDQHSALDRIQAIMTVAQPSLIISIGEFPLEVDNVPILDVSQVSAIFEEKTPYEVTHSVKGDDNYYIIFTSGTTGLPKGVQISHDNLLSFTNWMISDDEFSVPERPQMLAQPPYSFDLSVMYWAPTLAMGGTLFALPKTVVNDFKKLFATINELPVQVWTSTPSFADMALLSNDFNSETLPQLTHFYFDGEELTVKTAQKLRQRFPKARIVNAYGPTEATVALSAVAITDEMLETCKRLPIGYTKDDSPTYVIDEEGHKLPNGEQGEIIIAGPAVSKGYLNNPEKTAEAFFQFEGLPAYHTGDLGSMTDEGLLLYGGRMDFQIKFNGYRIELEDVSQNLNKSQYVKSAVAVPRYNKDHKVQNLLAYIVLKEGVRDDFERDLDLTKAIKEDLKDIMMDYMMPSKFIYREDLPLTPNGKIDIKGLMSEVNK
Experimental: as §1, with “To” for “The effect of the compounds of the invention on DltA enzymes has been based on the measure of their inhibition of DltA activity in vitro. To”
as §2, §3

[5] = recombinant DltA, 30min preincubation at room temperature, 0.5mM D-Alanine, 0.5-5µM ATP, read-out: E. feacium DltA IC50

Row | Compound | IC50 [1, 5] [nM] | IC50 [2] [nM] | IC50 [3] [nM] | IC50 [4] [nM] | IC50 [1] [nM]
1 | O=c1[nH]cnc2c(-c3ccc4c(c3)ncn4C3CCCCC3)sc(N3C[C@H](CO)[C@@H](CO)C3)c12 [Example 35, 5-((3R,4R)-3,4-Bis-hydroxymethyl-pyrrolidin-1-yl)-7-(1-cyclohexyl-1H-benzoimidazol-5-yl)-3H-thieno[3,4-d]pyrimidin-4-one] | 93 | 54 | 39 | 870 | –
2 | O=c1[nH]cnc2c(-c3ccc4c(c3)ncn4C3CCCCC3)sc(C3=CCNCC3)c12 [Example 37, 7-(1-cyclohexyl-1H-benzoimidazol-5-yl)-5-(1,2,3,6-tetrahydro-pyridin-4-yl)-3H-thieno[3,4-d]pyrimidin-4-one hydrochloride] | 42 | 68 | 25 | 660 | –
3 | CN1CC=C(c2sc(-c3ccc4c(c3)ncn4C3CCCCC3)c3nc[nH]c(=O)c23)CC1 [Example 38, hydrochloride] | – | 130 | 42 | 910 | 130
4 | CCn1cnc2cc(-c3sc(N4CC[C@H](CO)C4)c4c(=O)[nH]cnc34)ccc21 [Example 45, 7-(1-ethyl-1H-benzoimidazol-5-yl)-5-((S)-3-hydroxymethyl-pyrrolidin-1-yl)-3H-thieno[3,4-d]pyrimidin-4-one] | 390 | 130 | 70 | 3400 | –
5 | COCCn1cnc2cc(-c3sc(N4CC[C@H](CO)C4)c4c(=O)[nH]cnc34)ccc21 [Example 46, 5-((S)-3-hydroxymethyl-pyrrolidin-1-yl)-7-[1-(2-methoxy-ethyl)-1H-benzoimidazol-5-yl]-3H-thieno[3,4-d]pyrimidin-4-one] | 440 | 150 | 150 | 5100 | –
6 | O=c1[nH]cnc2c(-c3ccc4c(c3)ncn4[C@@H]3CCCC[C@H]3F)sc(N3CC[C@H](CO)C3)c12 [Example 47, 7-[1-((1R,2R)-2-fluoro-cyclohexyl)-1H-benzoimidazol-5-yl]-5-((S)-3-hydroxymethyl-pyrrolidin-1-yl)-3H-thieno[3,4-d]pyrimidin-4-one] | 110 | 77 | 46 | 2600 | –
7 | O=c1[nH]cnc2c(-c3ccc4c(c3)ncn4C3CCCOC3)sc(N3CC[C@H](CO)C3)c12 (stereo partly drawn) [Example 49, 5-((S)-3-hydroxymethyl-pyrrolidin-1-yl)-7-[1-(tetrahydro-pyran-3-yl)-1-H-benzoimidazol-5-yl]-3H-thieno[3,4-d]pyrimidin-4-one] | 160 | 97 | 82 | 3300 | –
8 | O=c1[nH]cnc2c1c(CCCO)cn2-c1ccc2c(c1)ncn2C1CCCCC1 [Example 51, 7-(1-Cyclohexyl-1H-benzoimidazol-5-yl)-5-(3-hydroxy-propyl)-3,7-dihydro-pyrrolo[2,3-d]pyrimidin-4-one] | 1200 | 1100 | 330 | 4500 | –
9 | O=c1[nH]cnc2c1c(C1=CCNCC1)cn2-c1ccc2c(c1)ncn2C1CCCCC1 [Example 52, 7-(1-cyclohexyl-1H-benzoimidazol-5-yl)-5-(1,2,3,6-tetrahydro-pyridin-4-yl)-3,7-dihydro-pyrrolo[2,3-d]pyrimidin-4-one hydrochloride] | 120 | 150 | 26 | 350 | –
10 | CN1CC=C(c2cn(-c3ccc4c(c3)ncn4C3CCCCC3)c3nc[nH]c(=O)c23)CC1 [Example 53, 7-(1-cyclohexyl-1H-benzoimidazol-5-yl)-5-(1-methyl-1,2,3,6-tetrahydro-pyridin-4-yl)-3,7-dihydro-pyrrolo[2,3-d]pyrimidin-4-one] | 94 | 150 | 13 | 590 | –
11 | O=c1[nH]cnc2c1c(C1CCC(CO)C1)cn2-c1ccc2c(c1)ncn2C1CCCCC1 (centres unmarked) [Example 58, 7-(1-Cyclohexyl-1H-benzoimidazol-5-yl)-5-(3-hydroxymethyl-cyclopentyl)-3,7-dihydro-pyrrolo[2,3-d]pyrimidin-4-one] | 480 | 810 | 190 | 6100 | –
